Measurements from ChEMBL document CHEMBL4000252, “Discovery of N-(2-aminoethyl)-N-benzyloxyphenyl benzamides: New potent Trypanosoma brucei inhibitors” (Bioorg Med Chem, 2017).
Active and inactive are the calls of the source. The calls are words filed in the database; no cut-off is given here.

Key:
[1] = test system: Trypanosoma brucei brucei; assay: Antiparasitic activity against Trypanosoma brucei brucei BF427 assessed as growth inhibition after 48 hrs by Alamar blue assay; type: functional; conditions: BF427, 48 h
[2] = Cytotoxicity against human CRL8155 cells assessed as growth inhibition after 48 hrs by Alamar blue assay; type: cell-based; conditions: crl8155, 48 h
HepG2 = assay: Cytotoxicity against human HepG2 cells assessed as growth inhibition after 48 hrs by Alamar blue assay; type: cell-based; conditions: hepg2, 48 h
Cytochrome P450 3A4 = Cytochrome P450 3A4 (Homo sapiens, UniProt P08684); assay: Inhibition of human CYP3A4; type: ADME
Cytochrome P450 3A4, sequence (P08684 whole entry): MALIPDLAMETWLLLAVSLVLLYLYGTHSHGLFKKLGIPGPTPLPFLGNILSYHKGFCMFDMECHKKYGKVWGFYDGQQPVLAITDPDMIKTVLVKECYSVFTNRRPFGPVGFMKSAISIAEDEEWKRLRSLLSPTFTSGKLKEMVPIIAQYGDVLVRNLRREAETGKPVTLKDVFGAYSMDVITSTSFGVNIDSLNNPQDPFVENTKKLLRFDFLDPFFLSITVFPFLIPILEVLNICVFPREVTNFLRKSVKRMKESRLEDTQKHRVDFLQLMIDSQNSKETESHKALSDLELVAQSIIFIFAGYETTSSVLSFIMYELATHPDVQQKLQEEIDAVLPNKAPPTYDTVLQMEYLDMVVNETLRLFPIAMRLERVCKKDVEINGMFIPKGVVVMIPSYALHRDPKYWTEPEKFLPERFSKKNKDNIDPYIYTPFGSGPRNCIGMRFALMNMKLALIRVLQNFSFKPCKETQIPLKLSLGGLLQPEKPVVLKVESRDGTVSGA

[3] = Cmax in mouse at 50 mg/kg, po by LC-MS analysis; type: ADME, organism-based; set-up: dose 50 mg/kg, route oral; conditions: in vivo
[4] = Ratio of drug level in brain to plasma in mouse at 5 mg/kg, ip after 1 hr by LC-MS analysis; type: ADME, organism-based
[5] = test system: Trypanosoma brucei rhodesiense; assay: Antiparasitic activity against Trypanosoma brucei rhodesiense STIB900 infected in Swiss-Webster mouse assessed as cure rate at 50 mg/kg, bid administered via oral gavage from day 2 to 5 post infection measured after 60 days by microscopic method relative to control; type: functional
[6] = AUC (0 to 8 hrs) in mouse at 50 mg/kg, po by LC-MS analysis; type: ADME, organism-based; set-up: dose 50 mg/kg, time < 8 hr, route oral; conditions: in vivo
Liver [7] = assay: Half life in human liver microsomes at 1.5 uM by LC-MS analysis; type: ADME, microsome
[8] = test system: Trypanosoma brucei brucei; assay: Antiparasitic activity against Trypanosoma brucei brucei TREU667 infected in mouse assessed as decrease in parasitemia at 50 mg/kg, bid administered via oral gavage on day 21 to 34 post infection measured on day 34 by microscopic method; type: functional, organism-based
[9] = test system: Trypanosoma brucei brucei; assay: Antiparasitic activity against Trypanosoma brucei brucei TREU667 infected in mouse assessed as decrease in parasitemia at 50 mg/kg, bid administered via oral gavage on day 21 to 34 post infection measured on day 41 to 42 by microscopic method; type: functional, organism-based
Liver [10] = assay: Half life in mouse liver microsomes at 1.5 uM by LC-MS analysis; type: ADME, microsome
L6 = assay: Cytotoxicity against rat L6 cells assessed as growth inhibition after 48 hrs by Alamar blue assay; type: cell-based; conditions: l6, 48 h
[11] = test system: Trypanosoma brucei brucei; assay: Antiparasitic activity against Trypanosoma brucei brucei TREU667 infected in mouse assessed as decrease in parasitemia at 50 mg/kg, bid administered via oral gavage on day 21 to 34 post infection measured on day 36 by microscopic method; type: functional, organism-based
[12] = test system: Trypanosoma brucei brucei; assay: Antiparasitic activity against Trypanosoma brucei brucei TREU667 infected in mouse assessed as decrease in parasitemia at 50 mg/kg, bid administered via oral gavage on day 21 to 34 post infection measured on day 46 to 49 by microscopic method; type: functional, organism-based
[13] = test system: Trypanosoma brucei brucei; assay: Antiparasitic activity against Trypanosoma brucei brucei TREU667 infected in mouse assessed as decrease in parasitemia at 50 mg/kg, bid administered via oral gavage on day 21 to 34 post infection measured on day 35 by microscopic method; type: functional, organism-based

Row | Compound | EC50 [1] [µM] | CC50 [2] [µM] | also measured
1 | NCCN(C(=O)c1ccc(Cl)c([N+](=O)[O-])c1)c1ccc(Cl)cc1 | 2.9 | – | –
2 | O=C(c1ccc(Cl)cc1Cl)N(c1ccc(Cl)cc1)c1cccnc1 | > 10 | – | –
3 | O=C(c1ccc(Cl)cc1Cl)N(CCN1CCOCC1)c1ccc(Cl)cc1 | > 10 | – | –
4 | NCCN(C(=O)c1ccccc1Cl)c1ccc(Cl)cc1 | 0.44 | > 50 | CC50 (HepG2): > 50 µM
5 | NCCN(C(=O)c1ccc(Cl)cc1Cl)c1ccc(Cl)cc1 | 0.31 | 12.5 | IC50 (Cytochrome P450 3A4): 0.07 µM; CC50 (HepG2): 14.2 µM
6 | Cc1ccccc1C(=O)N(CCN)c1ccc(Cl)cc1 | 0.52 | – | –
7 | N#CCN(C(=O)c1ccc(Cl)cc1Cl)c1ccc(Cl)cc1 | > 10 | – | –
8 | Cc1cc(C)cc(COc2ccc(N(CCN)C(=O)c3ccccc3C(F)(F)F)cc2)c1.Cl | 0.01 | 2.94 | Cmax [3]: 1.01 µM; BPR [4]: 0.96; Activity [5]: 33%; CC50 (HepG2): 3.94 µM; AUC(0-t) at 8 h [6]: 6.51 µM·h; t1/2 (Liver [7]): > 1 h
9 | NCCN(C(=O)c1ccccc1)c1ccc(Cl)cc1 | 13 | – | –
10 | NCCN(C(=O)c1ccc(Cl)cc1Cl)c1ccc(Cl)c(Cl)c1 | 1.68 | – | –
11 | NCCN(C(=O)c1ccccc1C(F)(F)F)c1ccc(Cl)cc1 | 0.33 | – | –
12 | NCCN(C(=O)c1ccc(Cl)cc1Cl)c1ccc([N+](=O)[O-])cc1 | > 10 | – | –
13 | NCCN(C(=O)c1cccc(Cl)c1)c1ccc(Cl)cc1 | 1.2 | – | –
14 | NCCN(C(=O)c1cccc(Cl)c1Cl)c1ccc(Cl)cc1 | 0.31 | – | –
15 | NCCN(C(=O)c1c(F)c(F)c(F)c(F)c1F)c1ccc(Cl)cc1 | 0.54 | – | –
16 | NCCN(C(=O)c1ccc(Cl)cc1Cl)c1ccc(-c2ccccc2)cc1 | 1.83 | – | –
17 | COc1ccccc1C(=O)N(CCN)c1ccc(Cl)cc1 | 2.51 | – | –
18 | CN(C)CCN(C(=O)c1ccc(Cl)cc1Cl)c1ccc(Cl)cc1 | > 10 | – | –
19 | O=C(c1ccc(Cl)cc1Cl)N(Cc1ccco1)c1ccc(Cl)cc1 | > 10 | – | –
20 | NCCN(C(=O)c1ccc(Cl)cc1Cl)c1ccc(Oc2cccc(Cl)c2)cc1 | 0.28 | – | –
21 | NCCN(C(=O)c1c(Cl)cccc1Cl)c1ccc(Cl)cc1 | 0.78 | > 50 | CC50 (HepG2): > 50 µM
22 | NCCN(C(=O)c1cccnc1C(F)(F)F)c1ccc(OCc2ccc(Cl)cc2)cc1 | 0.003 | 8.01 | CC50 (HepG2): 10.2 µM
23 | NCCN(C(=O)c1ccc(Cl)cc1)c1ccc(Cl)cc1 | 3.12 | – | –
24 | NCCN(C(=O)c1ccc(Cl)cc1Cl)c1ccc(F)c(Cl)c1 | 2.72 | – | –
25 | O=C(c1ccc(Cl)cc1Cl)N(Cc1cnc[nH]1)c1ccc(Cl)cc1 | > 10 | – | –

Row | Compound | EC50 [1] [µM] | CC50 [2] [µM] | also measured
26 | NC(=O)CCN(C(=O)c1ccc(Cl)cc1Cl)c1ccc(Cl)cc1 | > 10 | – | –
27 | COc1ccc(C(=O)N(CCN)c2ccc(Cl)cc2)cc1 | > 10 | – | –
28 | Cc1cc(C)cc(COc2ccc(N(CCN)C(=O)c3ccc(Cl)cc3Cl)cc2)c1.Cl | 0.02 | 2.45 | IC50 (Cytochrome P450 3A4): 0.003 µM; Cmax [3]: 5.9 µM; Activity [8]: Active; BPR [4]: 0.18; Activity [9]: inactive; Activity [5]: 33%; CC50 (HepG2): 4.1 µM; AUC(0-t) at 8 h [6]: 33.9 µM·h; t1/2 (Liver [7]): > 1 h
29 | NCCCN(C(=O)c1ccc(Cl)cc1Cl)c1ccc(Cl)cc1 | 2.9 | – | –
30 | NCCN(C(=O)c1ccc(Cl)cc1Cl)c1ccc(N)cc1 | > 10 | 11 | –
31 | Cc1cc(C)cc(COc2ccc(N(CCN)C(=O)c3ccc(F)cc3C(F)(F)F)cc2)c1 | 0.005 | 2.24 | CC50 (HepG2): 4.53 µM
32 | CC(C)c1ccc(N(CCN)C(=O)c2ccc(Cl)cc2Cl)cc1 | 3.89 | – | –
33 | Cc1ccc(C(=O)N(CCN)c2ccc(Cl)cc2)cc1 | 7 | – | –
34 | Cl.NCCN(C(=O)c1ccc(Cl)cc1Cl)c1ccc(F)cc1 | – | 30 | t1/2 (Liver [10]): > 1 h; IC50 (Cytochrome P450 3A4): 0.074 µM; CC50 (HepG2): 40 µM
35 | NCCN(C(=O)c1cccnc1C(F)(F)F)c1ccc(Cl)cc1 | 0.59 | – | –
36 | CC(C)c1ccc(COc2ccc(N(CCN)C(=O)c3ccc(F)cc3C(F)(F)F)cc2)cc1.Cl | 0.002 | 2.83 | Cmax [3]: 1.78 µM; BPR [4]: 0.22; Activity [5]: 33%; CC50 (HepG2): 3.66 µM; AUC(0-t) at 8 h [6]: 11.1 µM·h; t1/2 (Liver [7]): 0.867 h
37 | CC(N)CN(C(=O)c1ccc(Cl)cc1Cl)c1ccc(Cl)cc1 (stereo unspecified) | 1.05 | – | –
38 | Cc1cc(C)cc(COc2ccc(N(CCN)C(=O)c3cccnc3C(F)(F)F)cc2)c1 | 0.003 | 4.74 | CC50 (HepG2): 6.46 µM
39 | NCCN(C(=O)c1cccc(F)c1)c1ccc(Cl)cc1 | 4.03 | – | –
40 | Cc1ccc(C(=O)N(CCN)c2ccc(Cl)cc2)c(C)c1 | 0.97 | – | –
41 | NCCN(C(=O)c1cc([N+](=O)[O-])ccc1Cl)c1ccc(Cl)cc1 | 1.2 | – | –
42 | NCCN(C(=O)c1ccc(Cl)cc1Cl)c1cccc(Cl)c1 | 3.05 | – | –
43 | CC(C)c1ccc(COc2ccc(N(CCN)C(=O)c3ccccc3C(F)(F)F)cc2)cc1 | 0.003 | 2.22 | CC50 (HepG2): 3.99 µM
44 | CC(C)(C)c1ccc(COc2ccc(N(CCN)C(=O)c3ccc(Cl)cc3Cl)cc2)cc1 | 0.005 | 2.12 | CC50 (HepG2): 3.83 µM
45 | COc1ccc(N(CCN)C(=O)c2ccc(Cl)cc2Cl)cc1 | > 6 | – | CC50 (L6): 56.1 µM
46 | NCCN(C(=O)c1ccc(Cl)cc1Cl)c1ccc(Oc2ccccc2Cl)cc1 | 3.6 | – | –
47 | O=C(c1ccc(Cl)cc1Cl)N(CCO)c1ccc(Cl)cc1 | > 10 | – | –
48 | O=C(c1ccc(Cl)cc1Cl)N(c1ccc(Cl)cc1)C1CCNC1 (stereo unspecified) | 4.47 | – | –
49 | NCCN(C(=O)c1ccc(Cl)cc1Cl)c1ccc(C(F)(F)F)cc1 | 1.05 | – | CC50 (L6): 13.2 µM
50 | CC(=O)NCCN(C(=O)c1ccc(Cl)cc1Cl)c1ccc(Cl)cc1 | > 10 | – | –

Row | Compound | EC50 [1] [µM] | CC50 [2] [µM] | also measured
51 | NCCN(C(=O)c1ccc(Cl)cc1Cl)c1ccc(Cl)cc1Cl | 0.51 | – | –
52 | NCCN(C(=O)c1ccc(F)cc1F)c1ccc(Cl)cc1 | 1.24 | – | –
53 | NCCN(C(=O)c1c(Cl)cc(Cl)cc1Cl)c1ccc(Cl)cc1 | 0.23 | 8.5 | CC50 (HepG2): 21.5 µM
54 | COc1ccc(C(=O)N(CCN)c2ccc(Cl)cc2)c(OC)c1 | 4.82 | – | –
55 | NCCN(C(=O)c1cc(Cl)ccc1Cl)c1ccc(Cl)cc1 | 0.6 | – | –
56 | O=C(c1ccc(Cl)cc1Cl)N(c1ccc(Cl)cc1)C1CCCNC1 (stereo unspecified) | > 10 | – | –
57 | NCCN(C(=O)c1ccc(F)cc1)c1ccc(Cl)cc1 | 4.01 | – | –
58 | O=C(c1ccc(Cl)cc1Cl)N(Cc1cccs1)c1ccc(Cl)cc1 | > 10 | – | –
59 | CC(C)c1ccc(COc2ccc(N(CCN)C(=O)c3ccccc3[N+](=O)[O-])cc2)cc1 | 0.001 | 3.03 | –
60 | NCCN(C(=O)c1ccc(Cl)cc1Cl)c1ccc(Br)cc1 | 0.33 | 11.5 | CC50 (HepG2): 11 µM
61 | NCCN(C(=O)c1cc(Cl)cc(Cl)c1)c1ccc(Cl)cc1 | 1.08 | – | –
62 | CC(C)c1ccc(COc2ccc(N(CCN)C(=O)c3ccccc3Br)cc2)cc1 | 0.001 | 1.91 | –
63 | CCc1ccc(COc2ccc(N(CCN)C(=O)c3ccc(Cl)cc3Cl)cc2)cc1 | 0.015 | 2.59 | CC50 (HepG2): 5.6 µM
64 | NCCN(C(=O)c1ccc(F)cc1C(F)(F)F)c1ccc(Cl)cc1 | 0.18 | 42.3 | CC50 (HepG2): 37.7 µM
65 | Cc1ccc(N(CCN)C(=O)c2ccc(Cl)cc2Cl)cc1 | 1.52 | 24.9 | –
66 | Cl.NCCN(C(=O)c1ccc(F)cc1C(F)(F)F)c1ccc(OCc2ccc(Cl)cc2)cc1 | 0.007 | 3.67 | t1/2 (Liver [10]): > 1 h; Activity [11]: Active; Activity [12]: inactive; IC50 (Cytochrome P450 3A4): 0.01 µM; Cmax [3]: 4.39 µM; Activity [13]: Active; Activity [8]: Active; BPR [4]: 0.38; Activity [5]: 67 - 80%; CC50 (HepG2): 7.53 µM; AUC(0-t) at 8 h [6]: 26 µM·h; t1/2 (Liver [7]): > 1 h
67 | NCCN(C(=O)c1ccc(Cl)cc1Cl)c1ccc(OCc2cccc(Cl)c2)cc1 | 0.043 | 2.38 | CC50 (HepG2): 3.78 µM
68 | COc1cc(N(CCN)C(=O)c2ccc(Cl)cc2Cl)ccc1Cl | 4.52 | – | –
69 | CNCCN(C(=O)c1ccc(Cl)cc1Cl)c1ccc(Cl)cc1 | 1.65 | – | –
70 | NCCN(C(=O)c1ccc(Cl)cc1Cl)c1ccc(Oc2ccc(Cl)cc2)cc1 | 0.17 | – | –
71 | NCCN(C(=O)c1cccnc1Cl)c1ccc(OCc2ccc(Cl)cc2)cc1 | 0.03 | 11.5 | CC50 (HepG2): 15.2 µM
72 | CC(CN)N(C(=O)c1ccc(Cl)cc1Cl)c1ccc(Cl)cc1 (stereo unspecified) | 3.56 | – | –
73 | O=C(c1ccc(Cl)cc1Cl)N(Cc1ncc[nH]1)c1ccc(Cl)cc1 | > 10 | – | –
74 | NCCN(C(=O)c1ccccc1F)c1ccc(Cl)cc1 | 3.9 | – | CC50 (L6): 104 µM
75 | NCCN(C(=O)c1ccc(Cl)cc1Cl)c1cccc(Oc2ccc(Cl)cc2)c1 | 2.13 | – | –
